# Test results taken from ChEMBL document CHEMBL1158870, “Antitumor agents. 180. Chemical Studies and cytotoxic evaluation of cumingianosides and cumindysoside A, antileukemic triterpene glucosides with a 14,18-cycloapotirucallane skeleton” (1997).
# Key:
# [1] = tested on: SK-OV-3; assay: Cytotoxicity against human SKOV3 cells by SRB assay; format: functional
# [2] = tested on: COLO 205; assay: Cytotoxicity against human COLO205 cells by SRB assay; format: functional
# [3] = tested on: HCT-15; assay: Cytotoxicity against human HCT15 cells by SRB assay; format: functional
# [4] = tested on: EKVX; assay: Cytotoxicity against human EKVX cells by SRB assay; format: functional
# [5] = tested on: MDA-MB-231; assay: Cytotoxicity against human MDA-MB-231 cells by SRB assay; format: functional
# [6] = tested on: SNB-75; assay: Cytotoxicity against human SNB75 cells by SRB assay; format: functional
# [7] = tested on: NCI-H322M; assay: Cytotoxicity against human NCI-H322M cells by SRB assay; format: functional
# [8] = tested on: SF-295; assay: Cytotoxicity against human SF295 cells by SRB assay; format: functional
# [9] = tested on: SN12C; assay: Cytotoxicity against human SN12C cells by SRB assay; format: functional
# [10] = Cytotoxicity against human breast cancer cells by SRB assay; format: functional; conditions: Cancer cell lines
# [11] = tested on: CAKI-1; assay: Cytotoxicity against human Caki1 cells by SRB assay; format: functional
# [12] = tested on: HCT-116; assay: Cytotoxicity against human HCT116 cells by SRB assay; format: functional
# [13] = tested on: IGROV-1; assay: Cytotoxicity against human IGROV1 cells by SRB assay; format: functional
# [14] = Cytotoxicity against human prostate cancer cells by SRB assay; format: functional; conditions: Cancer cell lines
# [15] = tested on: SR; assay: Cytotoxicity against human SR cells by SRB assay; format: functional
# [16] = tested on: ACHN; assay: Cytotoxicity against human ACHN cells by SRB assay; format: functional
# [17] = tested on: UACC-62; assay: Cytotoxicity against human UACC62 cells by SRB assay; format: functional
# [18] = tested on: Leukemia cell; assay: Cytotoxicity against human Leukemia cells by SRB assay; format: functional
# [19] = Cytotoxicity against human MCF7/ADR cells by SRB assay; format: functional; conditions: NCI/ADR-RES
# [20] = tested on: OVCAR-4; assay: Cytotoxicity against human OVCAR4 cells by SRB assay; format: functional
# [21] = Cytotoxicity against human HL60(TB) cells by SRB assay; format: functional, HL-60(TB); conditions: HL-60
# [22] = tested on: A498; assay: Cytotoxicity against human A498 cells by SRB assay; format: functional
# [23] = Cytotoxicity against human renal cancer cells by SRB assay; format: functional; conditions: Cancer cell lines
# [24] = tested on: OVCAR-5; assay: Cytotoxicity against human OVCAR5 cells by SRB assay; format: functional
# [25] = tested on: MDA-N; assay: Cytotoxicity against human MDA-N cells by SRB assay; format: functional
# [26] = tested on: NCI-H460; assay: Cytotoxicity against human NCI-H460 cells by SRB assay; format: functional
# [27] = Cytotoxicity against human Colon cancer cells by SRB assay; format: functional; conditions: Cancer cell lines
# [28] = tested on: LOX IMVI; assay: Cytotoxicity against human LOXIMVI cells by SRB assay; format: functional
# [29] = tested on: RPMI-8226; assay: Cytotoxicity against human RPMI8226 cells by SRB assay; format: functional
# [30] = tested on: A549; assay: Cytotoxicity against human A549 cells by SRB assay; format: functional
# [31] = Cytotoxicity against human ovarian cancer cells by SRB assay; format: functional; conditions: Cancer cell lines
# [32] = tested on: SK-MEL-2; assay: Cytotoxicity against human SK-MEL-2 cells by SRB assay; format: functional
# [33] = tested on: K562; assay: Cytotoxicity against human K562 cells by SRB assay; format: functional
# [34] = tested on: RXF 393; assay: Cytotoxicity against human RXF393 cells by SRB assay; format: functional
# [35] = tested on: UO-31; assay: Cytotoxicity against human UO31 cells by SRB assay; format: functional
# [36] = tested on: M14; assay: Cytotoxicity against human M14 cells by SRB assay; format: functional
# [37] = tested on: OVCAR-8; assay: Cytotoxicity against human OVCAR8 cells by SRB assay; format: functional
# [38] = tested on: SW-620; assay: Cytotoxicity against human SW620 cells by SRB assay; format: functional
# [39] = tested on: CCRF-CEM; assay: Cytotoxicity against human CCRF-CEM cells by SRB assay; format: functional
# [40] = tested on: SK-MEL-5; assay: Cytotoxicity against human SK-MEL-5 cells by SRB assay; format: functional
# [41] = tested on: Malme-3M; assay: Cytotoxicity against human MALME-3M cells by SRB assay; format: functional
# [42] = tested on: SF-268; assay: Cytotoxicity against human SF268 cells by SRB assay; format: functional
# [43] = tested on: HT-29; assay: Cytotoxicity against human HT29 cells by SRB assay; format: functional
# [44] = tested on: NCI-H23; assay: Cytotoxicity against human NCI-H23 cells by SRB assay; format: functional
# [45] = tested on: T47D; assay: Cytotoxicity against human T47D cells by SRB assay; format: functional
# [46] = tested on: SK-MEL-28; assay: Cytotoxicity against human SK-MEL-28 cells by SRB assay; format: functional
# [47] = tested on: NCI-H226; assay: Cytotoxicity against human NCI-H226 cells by SRB assay; format: functional
# [48] = tested on: UACC-257; assay: Cytotoxicity against human UACC257 cells by SRB assay; format: functional
# [49] = tested on: MDA-MB-435; assay: Cytotoxicity against human MDA-MB-435 cells by SRB assay; format: functional
# [50] = Cytotoxicity against human Hs 578T cells by SRB assay; format: functional
# [51] = tested on: OVCAR-3; assay: Cytotoxicity against human OVCAR-3 cells by SRB assay; format: functional
# [52] = tested on: NSCLC; assay: Cytotoxicity against human NSCLC cells by SRB assay; format: functional
# [53] = tested on: HOP-62; assay: Cytotoxicity against human HOP62 cells by SRB assay; format: functional
# [54] = tested on: NCI-H522; assay: Cytotoxicity against human NCI-H522 cells by SRB assay; format: functional
# [55] = tested on: KM12; assay: Cytotoxicity against human KM12 cells by SRB assay; format: functional
# [56] = tested on: BT-549; assay: Cytotoxicity against human BT549 cells by SRB assay; format: functional
# [57] = tested on: MOLT-4; assay: Cytotoxicity against human MOLT4 cells by SRB assay; format: functional
# [58] = tested on: MCF7; assay: Cytotoxicity against human MCF7 cells by SRB assay; format: functional
# [59] = tested on: DU-145; assay: Cytotoxicity against human DU145 cells by SRB assay; format: functional
# [60] = tested on: HCC 2998; assay: Cytotoxicity against human HCC2998 cells by SRB assay; format: functional
# [61] = tested on: U-251; assay: Cytotoxicity against human U251 cells by SRB assay; format: functional
# [62] = tested on: HOP-92; assay: Cytotoxicity against human HOP92 cells by SRB assay; format: functional
# [63] = Cytotoxicity against human CNS cancer cells by SRB assay; format: functional; conditions: Cancer cell lines
# [64] = Cytotoxicity against human melanoma cells by SRB assay; format: functional; conditions: Melanoma cell
# [65] = tested on: PC-3; assay: Cytotoxicity against human PC3 cells by SRB assay; format: functional
# [66] = tested on: SNB-19; assay: Cytotoxicity against human SNB19 cells by SRB assay; format: functional
# [67] = Cytotoxicity against human 786-O cells by SRB assay; format: functional; conditions: 786-0
smiles,measurement,setting,value
CC(=O)OC[C@H]1O[C@@H](O[C@@H]2C[C@H]3C(C)(C)[C@H](OC(C)=O)CC[C@]3(C)[C@H]3CC[C@@]45C[C@H](O)C[C@H](C)[C@@H]4CC=C5[C@@]32C)[C@H](O)[C@@H](O)[C@@H]1O,GI50,[1],6.03 µM
same,GI50,[2],1820 nM
same,TGI,[2],3.2 µM
same,GI50,[3],8.91 µM
same,TGI,[3],22.3 µM
same,GI50,[4],7.08 µM
same,GI50,[5],2040 nM
same,GI50,[6],3.72 µM
same,GI50,[7],6.61 µM
same,GI50,[8],3.89 µM
same,GI50,[9],3.98 µM
same,TGI,[10],17.9 µM
same,GI50,[11],9.55 µM
same,GI50,[12],1780 nM
same,TGI,[12],3.5 µM
same,GI50,[13],3.16 µM
same,TGI,[14],16.7 µM
same,GI50,[15],1820 nM
same,GI50,[16],5.13 µM
same,GI50,[17],5.25 µM
same,TGI,[18],7 µM
same,GI50,[19],15.1 µM
same,GI50,[20],4.37 µM
same,GI50,[21],2090 nM
same,GI50,[22],14.1 µM
same,TGI,[23],18.8 µM
same,GI50,[24],2340 nM
same,GI50,[25],4.27 µM
same,GI50,[26],3.31 µM
same,TGI,[27],8.8 µM
same,GI50,[28],1820 nM
same,GI50,[29],2820 nM
same,GI50,[30],4.79 µM
same,TGI,[31],13.5 µM
same,GI50,[32],2450 nM
same,GI50,[33],2950 nM
same,GI50,[34],2630 nM
same,GI50,[35],14.8 µM
same,GI50,[36],3.89 µM
same,GI50,[37],4.47 µM
same,GI50,[38],4.57 µM
same,TGI,[38],18.1 µM
same,GI50,[39],2140 nM
same,GI50,[40],3.89 µM
same,GI50,[41],9.33 µM
same,GI50,[42],4.07 µM
same,GI50,[43],1700 nM
same,TGI,[43],3.3 µM
same,GI50,[44],3.89 µM
same,GI50,[45],4.37 µM
same,GI50,[46],8.32 µM
same,GI50,[47],4.9 µM
same,GI50,[48],3.39 µM
same,GI50,[49],3.72 µM
same,GI50,[50],4.07 µM
same,GI50,[51],3.89 µM
same,TGI,[52],18.1 µM
same,GI50,[53],11.2 µM
same,GI50,[54],3.09 µM
same,GI50,[55],2400 nM
same,TGI,[55],7.6 µM
same,GI50,[56],11 µM
same,GI50,[57],2140 nM
same,GI50,[58],4.47 µM
same,GI50,[59],10.5 µM
same,GI50,[60],2090 nM
same,TGI,[60],3.8 µM
same,GI50,[61],3.39 µM
same,GI50,[62],4.9 µM
same,TGI,[63],15 µM
same,TGI,[64],14.4 µM
same,GI50,[65],3.16 µM
same,GI50,[66],3.89 µM
same,GI50,[67],4.37 µM
